Ends that are not written are not given here.
How the values were obtained:
Type in all cases: cell-based
[1] = test system: human red blood cells; experiment: Hemolytic assay; details: human RBC in PBS pH 7.4, 37°C, 1 h, absorbance 415 nm
Description: Hemolytic activity was determined by the procedure of Yoshida et al. with slight modifications. Fresh human blood (1 mL) was centrifuged at 1000 ×g for 5 min and the precipitates were collected and then washed 3 times with phosphate buffered saline (PBS) (pH 7.4). Precipitates were resuspended in 4-fold volumes of PBS. Then, 995 μL of PBS solution containing serial diluted peptides was added to a human erythrocyte solution of 5 μL. The resulting solution was incubated at 37°C for 1 h and was centrifuged at 1000 ×g for 5 min. The supernatant was diluted 5-fold with PBS and was monitored at 415 nm using a UV spectrophotometer. Zero hemolysis (blank) and 100% hemolysis were determined in PBS and 1% Triton X-100, respectively.

[2] = test system: Klebsiella; experiment: MIC, serial dilution method; details: Klebsiella aeruginosa (so in the source); serial dilution 512-0.5 μg/mL, Luria-Bertani, 37°C, 16 to 18 hours; mean of three independent experiments in duplicate
Description: (§1) Two Gram-positive bacteria, 3 Gram-negative bacteria, and 2 fungi were selected to measure antibacterial activity of peptides. The strains were provided by Department of Microbiology in China Pharmaceutical University and were stored at 4°C until use.
Antimicrobial activity was evaluated using an inhibition zone assay or determination of the minimal inhibitory concentration (MIC) value with minor modifications as described previously: • Inhibition zone assay: agar plates were seeded with strains (about 10^6 cells in 10 mL of 1% agar medium). Wells (3 mm in diameter) were punched out and a 5 μL peptide sample dissolved in water was loaded. Controls were loaded with water. After incubation at 37°C overnight, the diameter of the inhibition zone was determined. • Determination of the MIC value: MICs were determined using a standard serial dilution method in appropriate medium for each bacterial strain listed in Table 3. In brief, 1 mL of different peptides dilution solutions was poured into a series of sterile plates, and then 9 mL appropriate medium that was preincubated at 37°C was added into a plate and was mixed gently to reach various concentrations (512, 256, 128, 64, 32, 16, 8, 4, 2, 1, and 0.5 μg/mL). Bacteria were added to the 96-well plates. The amount of bacteria for each spot is approximately 10^4 to 10^5 CFU/mL. After incubating the inoculated plate at 37°C for 16 to 18 hours, MICs were determined as the lowest peptide concentration that inhibited bacterial growth. […]

[3] = test system: Aspergillus niger
Description: as §1
(§2) Antimicrobial activity was evaluated using an inhibition zone assay or determination of the minimal inhibitory concentration (MIC) value with minor modifications as described previously: • Inhibition zone assay: agar plates were seeded with strains (about 10^6 cells in 10 mL of 1% agar medium). Wells (3 mm in diameter) were punched out and a 5 μL peptide sample dissolved in water was loaded. Controls were loaded with water. After incubation at 37°C overnight, the diameter of the inhibition zone was determined. • Determination of the MIC value: MICs were determined using a standard serial dilution method in appropriate medium for each bacterial strain listed in Table 3. In brief, 1 mL of different peptides dilution solutions was poured into a series of sterile plates, and then 9 mL appropriate medium that was preincubated at 37°C was added into a plate and was mixed gently to reach various concentrations (512, 256, 128, 64, 32, 16, 8, 4, 2, 1, and 0.5 μg/mL). Bacteria were added to the 96-well plates. The amount of bacteria for each spot is approximately 10^4 to 10^5 CFU/mL. After incubating the inoculated plate at 37°C for 16 to 18 hours, MICs were determined as the lowest peptide concentration that inhibited bacterial growth. All MICs were determined in two independent experiments performed in duplicate.

[4] = test system: Escherichia coli
Description: as §1, §2

[5] = test system: Pseudomonas aeruginosa
Description: as §1, §2

[6] = test system: Staphylococcus aureus
Description: as §1, §2

[7] = test system: Staphylococcus epidermidis
Description: as §1, §2

Row | Substance | concentration causing the lysis of whole erythrocytes [1] | MIC [2] | MIC [3] | MIC [4] | MIC [5] | MIC [6] | MIC [7] | hemolysis ([1]; 100% = 1% Triton X-100, tested at 10, 40, 160 and 640 μg/mL, value holds even at 640 μg/mL)
1 | Melittin [reference compound] | below 40 μg/mL |  |  |  |  |  |  | 
2 | RRWWRFPRFFRRFFR-NH2 [RFFR-15] |  | >512 µg/mL | >512 µg/mL | 256 µg/mL | >512 µg/mL | 64 µg/mL | 128 µg/mL | 
3 | KWKYPKLLKKLLK [KW-13] |  | 128 µg/mL | 256 µg/mL | 64 µg/mL | 128 µg/mL | 16 µg/mL | 4 µg/mL | < 1%
4 | RRWWRFPPPRFPPRFPPP-NH2 [RFPP-18] |  | >512 µg/mL | >512 µg/mL | 128 µg/mL | 256 µg/mL | >512 µg/mL | 512 µg/mL | 
5 | KWKKPKLLKKLLK [KWKK-13] |  | >512 µg/mL | >512 µg/mL | 256 µg/mL | >512 µg/mL | >512 µg/mL | >512 µg/mL | 
6 | KWKLFKKIWGKPV-NH2 [KPV-13] |  | >512 µg/mL | >512 µg/mL | 512 µg/mL | >512 µg/mL | >512 µg/mL | 32 µg/mL | 
7 | KFRWGKPV-NH2 [KPV-8] |  | >512 µg/mL | >512 µg/mL | >512 µg/mL | >512 µg/mL | >512 µg/mL | >512 µg/mL | 

Source: paper PMC4673326, “Design and Synthesis of a Novel Cationic Peptide with Potent and Broad-Spectrum Antimicrobial Activity” (BioMed Research International, 2015)
